Test results from ChEMBL document CHEMBL2021839, “Pyridine alkaloids from Senna multijuga as acetylcholinesterase inhibitors” (J Nat Prod, 2012).

Experiments:
[1] = target: Acetylcholinesterase (Electrophorus electricus) (UniProt O42275); assay: Inhibition of electric eel AChE using acetylthiocholine as substrate at 350 uM by Ellman's method
[2] = target: Acetylcholinesterase (Electrophorus electricus) (UniProt O42275); assay: Inhibition of electric eel AChE assessed as minimum concentration required to inhibit enzyme activity after 20 mins by TLC bioautographic assay

Acetylcholinesterase (Electrophorus electricus), sequence (O42275 24-633 limits assumed): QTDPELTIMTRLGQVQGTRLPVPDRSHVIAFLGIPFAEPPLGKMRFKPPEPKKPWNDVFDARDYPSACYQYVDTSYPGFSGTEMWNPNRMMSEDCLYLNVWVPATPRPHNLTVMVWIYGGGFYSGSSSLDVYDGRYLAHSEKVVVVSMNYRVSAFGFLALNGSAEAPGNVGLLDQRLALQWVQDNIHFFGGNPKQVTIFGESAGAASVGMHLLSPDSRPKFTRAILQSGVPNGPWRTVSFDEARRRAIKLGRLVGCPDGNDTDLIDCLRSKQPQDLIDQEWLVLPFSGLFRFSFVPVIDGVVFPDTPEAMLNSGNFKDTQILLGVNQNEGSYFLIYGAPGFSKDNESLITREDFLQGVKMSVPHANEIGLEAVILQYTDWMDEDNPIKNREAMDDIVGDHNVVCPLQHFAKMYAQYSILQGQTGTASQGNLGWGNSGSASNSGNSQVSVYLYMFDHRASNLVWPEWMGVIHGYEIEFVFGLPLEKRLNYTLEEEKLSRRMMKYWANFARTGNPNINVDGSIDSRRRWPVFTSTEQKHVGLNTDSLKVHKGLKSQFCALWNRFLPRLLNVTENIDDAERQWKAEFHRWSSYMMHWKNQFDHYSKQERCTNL

`CCCCC(O)CCCCCCCc1ccc(O)c(C)n1` (racemic) was tested, and the inhibition [1] was 19% and the MIC [2] was 1.5 µg.
`Cc1nc(CCCCCCC(O)CCCCCO)ccc1O` (racemic) gave an inhibition [1] of 51% and an MIC [2] of 1.5 µg.
With `CNC(=O)Oc1ccc2c(c1)[C@]1(C)CCN(C)[C@@H]1N2C` the inhibition [1] was 94% and the MIC [2] was 0.1 µg.
Compound `COC(=O)CCCc1ccc(O)c(C)n1` has an inhibition [1] of 40% and an MIC [2] of 3 µg.
In the case of `Cc1nc(CCCCCCCC(O)CCCCO)ccc1O` (racemic), the inhibition [1] is reported as 28% and the MIC [2] is reported as 6 µg.
For `CCCCCC(O)CCCCCCc1ccc(O)c(C)n1` (racemic), the inhibition [1] was 52% and the MIC [2] was 0.8 µg.
